Key:
[1] = tested on: human LINE-1; experiment: Human LINE-1 (L1) retrotransposition dual-luciferase reporter assay in HeLa cells; assay type: cell-based; conditions: Homo sapiens, HeLa, 72 h, read-out: Human LINE-1 IC50 (Human L1 activity inhibition)
Method in brief: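 Compound dilution series (final DMSO 0.2%) added right after transfecting HeLa cells with the pYX017 L1 dual-luciferase reporter; 72 h culture at 37 °C, 5% CO2, triplicates. IC50 fitted by non-linear logistic regression to firefly-to-Renilla luminescence ratio (×10,000).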

[2] = tested on: cancer cell lines; experiment: Cancer cell proliferation activity of representative nucleosides, CellTiterGlo 72 h (Example 7, Tables 8 and 9); assay type: cell-based; conditions: 72 h
Method in brief: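 Percent viability was set against 0.1% DMSO (100%) and 10 μM staurosporine (0%), with signal from CellTiterGlo luminescence. Dose-response treatment began one day after seeding and lasted 72 h at 37° C under 5% or 10% CO2, with 0.1% final DMSO.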

**Q.** Which IC50 [1] does the source give for `C#C[C@]1(CO)O[C@@H](n2cc(F)c(N)nc2=O)C[C@@H]1O` [compound 9] here?
**A.** 0.021 µM

**Q.** And the IC50 ([2]; 72 h, 5637, bladder)?
**A.** 0.81 µM

**Q.** What about the IC50 ([2]; CLS439, bladder) of the same molecule?
**A.** > 50 µM

**Q.** What about the IC50 ([2]; HS729, muscle) of the same molecule?
**A.** > 50 µM

**Q.** And the IC50 ([2]; J82, bladder)?
**A.** 1.16 µM

**Q.** And the IC50 ([2]; JAR, placenta)?
**A.** 7.25 µM

**Q.** What about the IC50 ([2]; MT3, breast) of the same molecule?
**A.** 1.46 µM

**Q.** What about the IC50 ([2]; PC3, prostate) of the same molecule?
**A.** 6.33 µM

**Q.** And the IC50 ([2]; RD, muscle)?
**A.** 4.22 µM

**Q.** What about the IC50 ([2]; T24, bladder) of the same molecule?
**A.** 3.76 µM

**Q.** And the IC50 ([2]; Homo sapiens, 22Rv1, 72 h, 22RV1, prostate)?
**A.** 0.55 µM

**Q.** What about the IC50 ([2]; Homo sapiens, 786-0, 72 h, 786O, kidney) of the same molecule?
**A.** 3.54 µM

**Q.** And the IC50 ([2]; Homo sapiens, A204, 72 h, A204, muscle)?
**A.** 9.82 µM

**Q.** And the IC50 ([2]; Homo sapiens, A549, 72 h, A549, lung)?
**A.** 1.24 µM

**Q.** And the IC50 ([2]; Homo sapiens, A673, 72 h, A673, bone)?
**A.** 1.96 µM

**Q.** What about the IC50 ([2]; Homo sapiens, A2780, 72 h, A2780, ovary) of the same molecule?
**A.** 4.18 µM

**Q.** What about the IC50 ([2]; Homo sapiens, A-375, 72 h, A375, skin) of the same molecule?
**A.** > 50 µM

**Q.** And the IC50 ([2]; Homo sapiens, A-431, 72 h, A431, skin)?
**A.** 0.11 µM

**Q.** And the IC50 ([2]; Homo sapiens, ACHN, kidney)?
**A.** 1.05 µM

**Q.** What about the IC50 ([2]; Homo sapiens, ASPC1, 72 h, ASPC1, pancreas) of the same molecule?
**A.** 2.58 µM

**Q.** What about the IC50 ([2]; Homo sapiens, BT-20, 72 h, BT20, breast) of the same molecule?
**A.** > 50 µM

**Q.** What about the IC50 ([2]; Homo sapiens, BXPC-3, 72 h, BXPC3, pancreas) of the same molecule?
**A.** 0.23 µM

**Q.** What about the IC50 ([2]; Homo sapiens, C-33-A, C33A, endometrial) of the same molecule?
**A.** 4.56 µM

**Q.** And the IC50 ([2]; Homo sapiens, CAKI-1, 72 h, CAKI1, kidney)?
**A.** > 50 µM

**Q.** And the IC50 ([2]; Homo sapiens, COLO 205, 72 h, COLO205, colon)?
**A.** 0.91 µM

**Q.** And the IC50 ([2]; Homo sapiens, COLO-678, 72 h, COLO678, colon)?
**A.** > 50 µM

**Q.** What about the IC50 ([2]; Homo sapiens, Ca-Ski, CASKI, endometrial) of the same molecule?
**A.** 11.6 µM

**Q.** And the IC50 ([2]; Homo sapiens, Caco-2, 72 h, CACO2, colon)?
**A.** > 50 µM

**Q.** What about the IC50 ([2]; Homo sapiens, Calu-6, 72 h, CALU6, lung) of the same molecule?
**A.** > 50 µM

**Q.** What about the IC50 ([2]; Homo sapiens, DLD-1, 72 h, DLD1, colon) of the same molecule?
**A.** 4.35 µM

**Q.** And the IC50 ([2]; Homo sapiens, DU-145, 72 h, DU145, prostate)?
**A.** 2.42 µM

**Q.** And the IC50 ([2]; Homo sapiens, EFO-21, 72 h, EFO21, ovary)?
**A.** 2.41 µM

**Q.** What about the IC50 ([2]; Homo sapiens, EJ-28, 72 h, EJ28, bladder) of the same molecule?
**A.** 2.21 µM

**Q.** What about the IC50 ([2]; Homo sapiens, Granta-519, 72 h, GRANTA-519, hematological) of the same molecule?
**A.** 3.24 µM

**Q.** And the IC50 ([2]; Homo sapiens, HCT-15, 72 h, HCT15, colon)?
**A.** 4.08 µM

**Q.** And the IC50 ([2]; Homo sapiens, HCT-116, 72 h, HCT116, colon)?
**A.** > 50 µM

**Q.** What about the IC50 ([2]; Homo sapiens, HEK293, 72 h, HEK293, kidney) of the same molecule?
**A.** 7.63 µM

**Q.** And the IC50 ([2]; Homo sapiens, HL-60, 72 h, HL-60, hematological)?
**A.** 4.04 µM

**Q.** What about the IC50 ([2]; Homo sapiens, HT-29, 72 h, HT29, colon) of the same molecule?
**A.** 1.47 µM

**Q.** And the IC50 ([2]; Homo sapiens, HT-1080, 72 h, HT1080, connective tissue)?
**A.** 2.88 µM

**Q.** And the IC50 ([2]; Homo sapiens, HeLa, endometrial)?
**A.** > 50 µM

**Q.** And the IC50 ([2]; Homo sapiens, HepG2, 72 h, HEPG2, liver)?
**A.** 1.6 µM

**Q.** What about the IC50 ([2]; Homo sapiens, Hs-578T, HS578T, breast) of the same molecule?
**A.** > 50 µM

**Q.** What about the IC50 ([2]; Homo sapiens, IGROV-1, 72 h, IGROV1, ovary) of the same molecule?
**A.** 5.01 µM

**Q.** And the IC50 ([2]; Homo sapiens, IMR-90, 72 h, IMR90, lung)?
**A.** > 50 µM

**Q.** And the IC50 ([2]; Homo sapiens, JEG-3, 72 h, JEG3, placenta)?
**A.** 0.99 µM

**Q.** What about the IC50 ([2]; Homo sapiens, JIMT-1, 72 h, JIMT1, breast) of the same molecule?
**A.** 4.47 µM

**Q.** And the IC50 ([2]; Homo sapiens, K562, 72 h, K-562, hematological)?
**A.** 4.38 µM

**Q.** And the IC50 ([2]; Homo sapiens, Kasumi 1, 72 h, KASUMI-1, hematological)?
**A.** > 50 µM

**Q.** And the IC50 ([2]; Homo sapiens, L-363, 72 h, L-363, hematological)?
**A.** 1.96 µM

**Q.** What about the IC50 ([2]; Homo sapiens, LoVo, colon) of the same molecule?
**A.** 1.62 µM

**Q.** What about the IC50 ([2]; Homo sapiens, MCF7, 72 h, MCF7, breast) of the same molecule?
**A.** 1.19 µM

**Q.** And the IC50 ([2]; Homo sapiens, MDA-MB-231, 72 h, MDAMB231, breast)?
**A.** > 50 µM

**Q.** And the IC50 ([2]; Homo sapiens, MDA-MB-435, 72 h, MDAMB435, skin)?
**A.** 4.39 µM

**Q.** And the IC50 ([2]; Homo sapiens, MDA-MB-436, 72 h, MDAMB436, breast)?
**A.** 1.37 µM

**Q.** And the IC50 ([2]; Homo sapiens, MDA-MB-468, 72 h, MDAMB468, breast)?
**A.** > 50 µM

**Q.** And the IC50 ([2]; Homo sapiens, MG-63, 72 h, MG63, bone)?
**A.** 2.44 µM

**Q.** And the IC50 ([2]; Homo sapiens, MHH-ES-1, 72 h, MHHES1, bone)?
**A.** 1.53 µM

**Q.** And the IC50 ([2]; Homo sapiens, MIA PaCa-2, 72 h, MIAPACA2, pancreas)?
**A.** 3.75 µM

**Q.** What about the IC50 ([2]; Homo sapiens, MINO, hematological) of the same molecule?
**A.** 3.74 µM

**Q.** And the IC50 ([2]; Homo sapiens, MV4-11, 72 h, MV4-11, hematological)?
**A.** 0.39 µM

**Q.** What about the IC50 ([2]; Homo sapiens, NCI-H23, 72 h, NCI-H23, lung) of the same molecule?
**A.** 2.42 µM

**Q.** And the IC50 ([2]; Homo sapiens, NCI-H82, 72 h, NCIH82, lung)?
**A.** 2.35 µM

**Q.** And the IC50 ([2]; Homo sapiens, NCI-H292, 72 h, NCIH292, lung)?
**A.** > 50 µM

**Q.** And the IC50 ([2]; Homo sapiens, NCI-H460, 72 h, NCIH460, ung)?
**A.** 1.06 µM

**Q.** What about the IC50 ([2]; Homo sapiens, OVCAR-3, 72 h, OVCAR3, ovary) of the same molecule?
**A.** 5.6 µM

**Q.** And the IC50 ([2]; Homo sapiens, OVCAR-4, 72 h, OVCAR4, ovary)?
**A.** > 50 µM

**Q.** What about the IC50 ([2]; Homo sapiens, PANC-1, 72 h, PANC1, pancreas) of the same molecule?
**A.** 6.4 µM

**Q.** And the IC50 ([2]; Homo sapiens, PLC-PRF-5, 72 h, PLCPRF5, liver)?
**A.** 3.24 µM

**Q.** What about the IC50 ([2]; Homo sapiens, Panc1005, 72 h, PANC1005, pancreas) of the same molecule?
**A.** 16.4 µM

**Q.** And the IC50 ([2]; Homo sapiens, Ramos, hematological)?
**A.** 5.3 µM

**Q.** What about the IC50 ([2]; Homo sapiens, SAOS-2, 72 h, SAOS2, bone) of the same molecule?
**A.** 4.72 µM

**Q.** And the IC50 ([2]; Homo sapiens, SF-268, 72 h, SF268, brain)?
**A.** 1.65 µM

**Q.** And the IC50 ([2]; Homo sapiens, SF-295, 72 h, SF295, brain)?
**A.** 4.49 µM

**Q.** What about the IC50 ([2]; Homo sapiens, SK-BR-3, 72 h, SKBR3, breast) of the same molecule?
**A.** 0.12 µM

**Q.** What about the IC50 ([2]; Homo sapiens, SK-HEP1, 72 h, SKHEP1, liver) of the same molecule?
**A.** 1.29 µM

**Q.** And the IC50 ([2]; Homo sapiens, SK-LMS-1, 72 h, SKLMS1, uterus)?
**A.** 5.61 µM

**Q.** And the IC50 ([2]; Homo sapiens, SK-MEL-5, 72 h, SKMEL5, skin)?
**A.** 5.52 µM

**Q.** What about the IC50 ([2]; Homo sapiens, SK-MEL-28, 72 h, SKMEL28, skin) of the same molecule?
**A.** > 50 µM

**Q.** What about the IC50 ([2]; Homo sapiens, SK-N-AS, SKNAS, brain) of the same molecule?
**A.** > 50 µM

**Q.** What about the IC50 ([2]; Homo sapiens, SK-N-SH, SKNSH, brain) of the same molecule?
**A.** 2.44 µM

**Q.** And the IC50 ([2]; Homo sapiens, SK-OV-3, 72 h, SKOV3, ovary)?
**A.** 1.64 µM

**Q.** What about the IC50 ([2]; Homo sapiens, SNB-75, 72 h, SNB75, brain) of the same molecule?
**A.** > 50 µM

**Q.** What about the IC50 ([2]; Homo sapiens, SU-DHL10, 72 h, SU-DHL-10, hematological) of the same molecule?
**A.** 3.15 µM

**Q.** And the IC50 ([2]; Homo sapiens, SU-DHL-6, 72 h, SU-DHL-6, hematological)?
**A.** 4.69 µM

**Q.** And the IC50 ([2]; Homo sapiens, SW-620, 72 h, SW620, colon)?
**A.** 0.91 µM

**Q.** And the IC50 ([2]; Homo sapiens, TE-671, 72 h, TE671, muscle)?
**A.** 5.9 µM

**Q.** And the IC50 ([2]; Homo sapiens, THP-1, 72 h, THP-1, hematological)?
**A.** 1.12 µM

**Q.** What about the IC50 ([2]; Homo sapiens, U2OS, bone) of the same molecule?
**A.** > 50 µM

**Q.** What about the IC50 ([2]; Homo sapiens, U-87 MG, U87MG, brain) of the same molecule?
**A.** 11.9 µM

**Q.** And the IC50 ([2]; Homo sapiens, UMUC3, 72 h, UMUC3, bladder)?
**A.** 3.39 µM

**Q.** And the IC50 ([2]; Homo sapiens, UO-31, 72 h, UO31, kidney)?
**A.** > 50 µM

**Q.** And the IC50 ([2]; Homo sapiens, WSU-NHL, hematological)?
**A.** 3.53 µM

**Q.** And the IC50 ([2]; NCI-H358M, NCIH358M, lung)?
**A.** > 50 µM

**Q.** What about the IC50 ([2]; PBMC, hematological) of the same molecule?
**A.** > 50 µM

**Q.** And the IC50 ([2]; RD-ES, RDES, bone)?
**A.** 3.93 µM

Reference: patent US20230293526A1, “METHOD FOR TREATING CANCER WITH A REVERSE TRANSCRIPTASE INHIBITOR” (PrimeFour Therapeutics, Inc., priority 2020, published 2023)
